Holding throughout (settings): Compound concentration 10 µM
In assay [1] the target is T1, Muscarinic acetylcholine receptor M1 (Homo sapiens) (UniProt P11229).
T1 sequence (whole entry): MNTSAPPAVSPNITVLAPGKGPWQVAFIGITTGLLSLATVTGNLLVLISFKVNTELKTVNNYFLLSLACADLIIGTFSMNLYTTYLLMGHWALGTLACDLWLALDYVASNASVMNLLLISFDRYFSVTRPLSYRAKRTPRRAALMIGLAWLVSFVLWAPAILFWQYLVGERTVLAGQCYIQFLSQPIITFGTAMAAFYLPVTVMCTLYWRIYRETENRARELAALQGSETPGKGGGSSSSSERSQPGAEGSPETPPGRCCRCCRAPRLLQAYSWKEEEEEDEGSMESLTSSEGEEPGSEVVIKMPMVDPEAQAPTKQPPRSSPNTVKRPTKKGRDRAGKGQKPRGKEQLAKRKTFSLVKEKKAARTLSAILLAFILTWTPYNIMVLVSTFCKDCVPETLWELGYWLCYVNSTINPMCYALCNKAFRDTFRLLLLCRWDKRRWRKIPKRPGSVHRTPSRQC

Assay [2] has as its target 5-hydroxytryptamine receptor 2A (Homo sapiens) (UniProt P28223).
In assay [3] the target is D(3) dopamine receptor (Homo sapiens) (UniProt P35462).
Assay [4] addresses D(1B) dopamine receptor (Homo sapiens) (UniProt P21918).
The target of assay [5] is T2, Alpha-1D adrenergic receptor (Homo sapiens) (UniProt P25100).
T2 sequence (whole entry): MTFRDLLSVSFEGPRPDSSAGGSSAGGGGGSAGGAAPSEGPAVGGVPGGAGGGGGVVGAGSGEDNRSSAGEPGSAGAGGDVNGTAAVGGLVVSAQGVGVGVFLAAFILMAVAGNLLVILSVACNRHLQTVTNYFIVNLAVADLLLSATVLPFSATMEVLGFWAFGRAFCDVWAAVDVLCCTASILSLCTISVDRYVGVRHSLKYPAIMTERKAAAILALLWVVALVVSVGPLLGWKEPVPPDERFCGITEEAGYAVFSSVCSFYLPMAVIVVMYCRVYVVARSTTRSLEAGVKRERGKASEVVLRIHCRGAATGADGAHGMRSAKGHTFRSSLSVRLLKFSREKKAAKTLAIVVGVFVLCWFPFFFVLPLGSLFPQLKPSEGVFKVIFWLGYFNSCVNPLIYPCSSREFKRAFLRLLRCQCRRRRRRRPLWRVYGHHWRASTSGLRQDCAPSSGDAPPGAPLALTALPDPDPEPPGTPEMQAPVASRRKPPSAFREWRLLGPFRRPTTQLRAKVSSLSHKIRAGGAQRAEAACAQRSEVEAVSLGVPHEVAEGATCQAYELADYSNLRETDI

Assay [6] addresses Histamine H1 receptor (Homo sapiens) (UniProt P35367).
In assay [7] the target is Sigma intracellular receptor 2 (Homo sapiens) (UniProt Q5BJF2).
The target in assay [8] is D(2) dopamine receptor (Homo sapiens) (UniProt P14416).
For assay [9], the target named is Muscarinic acetylcholine receptor M3 (Homo sapiens) (UniProt P20309).
Assay [10] has as its target Mu-type opioid receptor (Homo sapiens) (UniProt P35372).
The target in assay [11] is Beta-2 adrenergic receptor (Homo sapiens) (UniProt P07550).
The target of assay [12] is Delta-type opioid receptor (Homo sapiens) (UniProt P41143).
Assay [13] deals with Histamine H4 receptor (Homo sapiens) (UniProt Q9H3N8).
The target of assay [14] is T3, Alpha-1A adrenergic receptor (Homo sapiens) (UniProt P35348).
T3 sequence (whole entry): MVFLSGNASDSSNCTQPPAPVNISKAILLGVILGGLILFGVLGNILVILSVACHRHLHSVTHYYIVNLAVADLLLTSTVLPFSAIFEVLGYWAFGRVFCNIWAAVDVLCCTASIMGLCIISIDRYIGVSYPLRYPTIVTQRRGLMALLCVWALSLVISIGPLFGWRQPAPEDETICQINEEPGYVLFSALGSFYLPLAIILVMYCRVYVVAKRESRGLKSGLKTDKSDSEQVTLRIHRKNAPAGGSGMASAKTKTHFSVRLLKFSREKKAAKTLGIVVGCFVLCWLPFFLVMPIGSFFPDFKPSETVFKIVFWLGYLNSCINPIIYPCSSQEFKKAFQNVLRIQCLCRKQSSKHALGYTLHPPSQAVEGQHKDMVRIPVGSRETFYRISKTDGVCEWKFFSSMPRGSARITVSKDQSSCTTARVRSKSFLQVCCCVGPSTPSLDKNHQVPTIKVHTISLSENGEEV

Assay [15] deals with T4, 5-hydroxytryptamine receptor 3A (Homo sapiens) (UniProt P46098).
T4 sequence (whole entry): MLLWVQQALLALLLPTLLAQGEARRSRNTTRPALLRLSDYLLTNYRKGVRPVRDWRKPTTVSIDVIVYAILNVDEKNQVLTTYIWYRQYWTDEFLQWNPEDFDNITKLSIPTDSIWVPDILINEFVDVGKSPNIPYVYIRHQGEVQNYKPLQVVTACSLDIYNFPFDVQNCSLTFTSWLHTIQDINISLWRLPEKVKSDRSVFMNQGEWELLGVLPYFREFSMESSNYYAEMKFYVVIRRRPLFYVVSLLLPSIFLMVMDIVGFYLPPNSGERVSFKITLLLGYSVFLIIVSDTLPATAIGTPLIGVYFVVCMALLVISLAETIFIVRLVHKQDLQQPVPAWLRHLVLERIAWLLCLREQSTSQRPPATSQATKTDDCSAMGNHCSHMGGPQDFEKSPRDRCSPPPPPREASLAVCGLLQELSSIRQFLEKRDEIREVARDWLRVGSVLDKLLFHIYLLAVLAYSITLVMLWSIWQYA

Assay [16] has as its target 5-hydroxytryptamine receptor 2B (Homo sapiens) (UniProt P41595).
The target of assay [17] is Sodium-dependent dopamine transporter (Homo sapiens) (UniProt Q01959).
For assay [18], the target named is 5-hydroxytryptamine receptor 1B (Homo sapiens) (UniProt P28222).

Chain of Histamine H1 receptor (Homo sapiens) (P35367 whole entry): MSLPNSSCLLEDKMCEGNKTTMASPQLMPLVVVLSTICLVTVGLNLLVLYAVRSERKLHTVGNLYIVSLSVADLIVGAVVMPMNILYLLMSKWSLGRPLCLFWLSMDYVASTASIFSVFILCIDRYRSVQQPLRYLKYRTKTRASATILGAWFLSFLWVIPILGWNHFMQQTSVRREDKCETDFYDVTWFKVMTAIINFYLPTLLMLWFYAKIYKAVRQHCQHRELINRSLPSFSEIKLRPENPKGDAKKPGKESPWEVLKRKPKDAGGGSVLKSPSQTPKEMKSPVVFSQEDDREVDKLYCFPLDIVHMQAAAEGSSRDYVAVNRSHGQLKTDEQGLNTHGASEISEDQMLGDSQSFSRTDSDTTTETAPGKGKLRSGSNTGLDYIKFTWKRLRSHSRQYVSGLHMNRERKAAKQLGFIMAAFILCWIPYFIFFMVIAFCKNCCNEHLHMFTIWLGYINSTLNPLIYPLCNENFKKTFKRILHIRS
Chain of Beta-2 adrenergic receptor (Homo sapiens) (P07550 whole entry, looked up): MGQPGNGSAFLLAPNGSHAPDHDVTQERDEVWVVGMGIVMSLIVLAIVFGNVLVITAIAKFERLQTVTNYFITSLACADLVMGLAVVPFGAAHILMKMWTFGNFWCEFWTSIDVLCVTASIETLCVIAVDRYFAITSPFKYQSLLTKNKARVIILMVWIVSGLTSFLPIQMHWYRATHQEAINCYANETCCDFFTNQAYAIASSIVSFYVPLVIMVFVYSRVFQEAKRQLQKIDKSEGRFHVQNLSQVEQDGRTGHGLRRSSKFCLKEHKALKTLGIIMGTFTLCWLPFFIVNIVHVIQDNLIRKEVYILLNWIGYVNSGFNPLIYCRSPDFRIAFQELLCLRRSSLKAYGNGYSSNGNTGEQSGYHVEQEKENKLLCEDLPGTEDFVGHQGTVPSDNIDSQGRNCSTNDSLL
Chain of 5-hydroxytryptamine receptor 2A (Homo sapiens) (P28223 whole entry): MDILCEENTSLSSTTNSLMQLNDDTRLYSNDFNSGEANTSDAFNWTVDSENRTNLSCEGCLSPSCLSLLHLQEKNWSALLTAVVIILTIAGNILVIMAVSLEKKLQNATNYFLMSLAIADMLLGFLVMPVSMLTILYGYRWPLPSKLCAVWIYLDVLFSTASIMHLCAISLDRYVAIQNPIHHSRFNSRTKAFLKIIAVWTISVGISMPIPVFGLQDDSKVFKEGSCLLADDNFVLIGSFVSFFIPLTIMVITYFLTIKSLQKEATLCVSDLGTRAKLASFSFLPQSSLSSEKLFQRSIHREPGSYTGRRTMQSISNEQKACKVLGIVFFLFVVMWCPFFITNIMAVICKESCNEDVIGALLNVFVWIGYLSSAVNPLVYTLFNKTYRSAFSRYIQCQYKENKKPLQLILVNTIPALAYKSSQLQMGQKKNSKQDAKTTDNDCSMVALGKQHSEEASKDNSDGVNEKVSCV
Chain of D(2) dopamine receptor (Homo sapiens) (P14416 whole entry): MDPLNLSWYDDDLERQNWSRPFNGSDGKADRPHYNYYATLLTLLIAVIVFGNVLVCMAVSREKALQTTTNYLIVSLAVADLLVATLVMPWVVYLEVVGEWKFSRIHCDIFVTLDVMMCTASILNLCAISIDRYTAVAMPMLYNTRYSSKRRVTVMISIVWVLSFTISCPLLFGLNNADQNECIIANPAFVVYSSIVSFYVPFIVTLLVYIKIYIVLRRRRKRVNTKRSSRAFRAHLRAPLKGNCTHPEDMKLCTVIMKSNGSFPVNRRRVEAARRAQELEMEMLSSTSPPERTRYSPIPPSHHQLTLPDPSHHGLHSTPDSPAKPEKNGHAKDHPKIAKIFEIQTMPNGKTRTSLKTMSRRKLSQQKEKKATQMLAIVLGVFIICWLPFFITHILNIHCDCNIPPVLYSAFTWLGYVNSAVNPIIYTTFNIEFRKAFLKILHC
Chain of Histamine H4 receptor (Homo sapiens) (Q9H3N8 whole entry): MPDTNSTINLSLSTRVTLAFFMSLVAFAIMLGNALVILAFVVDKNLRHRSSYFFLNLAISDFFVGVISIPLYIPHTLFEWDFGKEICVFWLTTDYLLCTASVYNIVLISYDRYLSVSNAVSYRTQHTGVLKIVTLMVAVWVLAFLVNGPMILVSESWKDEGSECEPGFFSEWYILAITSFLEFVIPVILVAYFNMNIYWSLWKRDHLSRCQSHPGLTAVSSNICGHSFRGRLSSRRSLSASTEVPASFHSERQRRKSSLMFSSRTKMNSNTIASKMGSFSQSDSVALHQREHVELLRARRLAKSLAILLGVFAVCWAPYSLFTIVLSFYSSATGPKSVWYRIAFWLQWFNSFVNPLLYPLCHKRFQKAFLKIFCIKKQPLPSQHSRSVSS
Chain of Sigma intracellular receptor 2 (Homo sapiens) (Q5BJF2 whole entry): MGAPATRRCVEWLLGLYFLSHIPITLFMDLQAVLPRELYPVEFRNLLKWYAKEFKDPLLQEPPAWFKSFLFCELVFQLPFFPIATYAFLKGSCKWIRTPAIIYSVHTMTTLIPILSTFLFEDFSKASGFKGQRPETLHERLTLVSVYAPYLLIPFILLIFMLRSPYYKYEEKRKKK
Chain of D(3) dopamine receptor (Homo sapiens) (P35462 whole entry): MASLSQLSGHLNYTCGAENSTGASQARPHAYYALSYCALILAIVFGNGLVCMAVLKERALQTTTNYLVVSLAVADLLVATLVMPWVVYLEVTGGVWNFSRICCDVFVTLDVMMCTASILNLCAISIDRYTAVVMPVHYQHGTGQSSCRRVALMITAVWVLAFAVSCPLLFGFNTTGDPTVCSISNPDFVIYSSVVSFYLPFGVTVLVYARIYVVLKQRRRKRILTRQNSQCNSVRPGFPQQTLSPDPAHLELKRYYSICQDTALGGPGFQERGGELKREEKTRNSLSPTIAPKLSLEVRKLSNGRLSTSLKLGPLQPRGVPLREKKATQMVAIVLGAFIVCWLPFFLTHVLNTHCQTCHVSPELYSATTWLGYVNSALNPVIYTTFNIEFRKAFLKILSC
Chain of D(1B) dopamine receptor (Homo sapiens) (P21918 whole entry): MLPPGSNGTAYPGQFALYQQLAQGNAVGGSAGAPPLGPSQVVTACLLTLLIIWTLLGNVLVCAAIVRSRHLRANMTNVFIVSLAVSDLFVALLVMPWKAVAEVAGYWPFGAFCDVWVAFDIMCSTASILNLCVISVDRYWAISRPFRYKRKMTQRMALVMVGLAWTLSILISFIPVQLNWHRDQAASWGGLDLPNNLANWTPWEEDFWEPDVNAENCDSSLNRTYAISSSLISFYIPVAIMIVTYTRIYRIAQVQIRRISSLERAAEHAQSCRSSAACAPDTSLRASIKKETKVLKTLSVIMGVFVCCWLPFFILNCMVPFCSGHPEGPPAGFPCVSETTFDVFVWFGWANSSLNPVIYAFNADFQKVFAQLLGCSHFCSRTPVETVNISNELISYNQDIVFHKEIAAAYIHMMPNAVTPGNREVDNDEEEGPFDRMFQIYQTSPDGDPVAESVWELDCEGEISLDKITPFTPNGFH
Chain of Mu-type opioid receptor (Homo sapiens) (P35372 whole entry): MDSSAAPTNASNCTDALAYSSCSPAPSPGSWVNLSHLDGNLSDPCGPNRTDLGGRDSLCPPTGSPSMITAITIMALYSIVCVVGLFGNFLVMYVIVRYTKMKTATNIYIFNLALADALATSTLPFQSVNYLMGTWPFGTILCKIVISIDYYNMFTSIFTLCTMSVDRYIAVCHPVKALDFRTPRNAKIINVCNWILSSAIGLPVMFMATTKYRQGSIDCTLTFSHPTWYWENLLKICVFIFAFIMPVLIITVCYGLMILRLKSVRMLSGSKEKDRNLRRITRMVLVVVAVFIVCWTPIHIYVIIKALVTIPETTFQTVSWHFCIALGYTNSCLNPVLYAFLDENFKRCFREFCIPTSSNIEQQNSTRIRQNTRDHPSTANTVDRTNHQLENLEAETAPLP
Chain of Sodium-dependent dopamine transporter (Homo sapiens) (Q01959 whole entry): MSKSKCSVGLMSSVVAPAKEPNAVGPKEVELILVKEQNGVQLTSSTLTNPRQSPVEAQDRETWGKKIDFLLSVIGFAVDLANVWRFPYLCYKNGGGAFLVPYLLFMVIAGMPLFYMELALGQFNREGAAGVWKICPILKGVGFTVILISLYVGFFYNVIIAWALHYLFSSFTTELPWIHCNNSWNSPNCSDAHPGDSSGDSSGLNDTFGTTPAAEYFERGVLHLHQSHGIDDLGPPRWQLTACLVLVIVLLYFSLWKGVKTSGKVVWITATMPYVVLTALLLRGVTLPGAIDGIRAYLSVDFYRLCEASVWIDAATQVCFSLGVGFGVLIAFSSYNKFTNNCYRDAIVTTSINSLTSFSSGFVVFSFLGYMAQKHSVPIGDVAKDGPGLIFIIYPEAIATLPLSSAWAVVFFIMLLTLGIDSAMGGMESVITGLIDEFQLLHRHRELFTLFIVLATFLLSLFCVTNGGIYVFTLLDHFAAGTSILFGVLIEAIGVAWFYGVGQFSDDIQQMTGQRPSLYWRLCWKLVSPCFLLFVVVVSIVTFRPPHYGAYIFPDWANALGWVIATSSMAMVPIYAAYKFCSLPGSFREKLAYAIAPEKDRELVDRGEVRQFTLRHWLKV
Chain of Muscarinic acetylcholine receptor M3 (Homo sapiens) (P20309 whole entry, looked up): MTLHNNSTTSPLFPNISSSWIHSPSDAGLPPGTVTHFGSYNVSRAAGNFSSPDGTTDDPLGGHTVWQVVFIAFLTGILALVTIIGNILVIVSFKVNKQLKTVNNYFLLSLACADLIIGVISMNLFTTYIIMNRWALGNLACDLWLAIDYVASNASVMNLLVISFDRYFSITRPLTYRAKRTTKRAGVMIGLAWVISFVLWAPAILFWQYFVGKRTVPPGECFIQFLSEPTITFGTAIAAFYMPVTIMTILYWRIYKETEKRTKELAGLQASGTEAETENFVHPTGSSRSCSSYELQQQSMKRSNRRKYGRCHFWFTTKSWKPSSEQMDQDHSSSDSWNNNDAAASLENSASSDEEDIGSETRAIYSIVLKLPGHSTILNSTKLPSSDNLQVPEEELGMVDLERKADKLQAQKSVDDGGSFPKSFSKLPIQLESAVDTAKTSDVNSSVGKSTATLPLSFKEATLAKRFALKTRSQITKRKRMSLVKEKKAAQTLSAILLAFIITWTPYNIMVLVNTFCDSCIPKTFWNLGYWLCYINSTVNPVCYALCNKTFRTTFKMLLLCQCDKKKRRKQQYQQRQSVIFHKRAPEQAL

Regarding `CC1=C2C[C@H]3[C@@H](CC=C4C[C@@H](O)CC[C@@]43C)[C@@H]2CC[C@]12O[C@@H]1C[C@H](C)CN[C@H]1[C@H]2C`, the inhibition – broadly, the drop in the measured response relative to a control, in per cent – was 22.8% in assay [1]; 4.16% in [2]; 19.6% in assay [3]; 1.59% in [4]; -8.81% in [5]; 40.4% in assay [6]. Also, the inhibition in assay [7] is 91.8%; in [8], 13.2%; in assay [9], -6.3%; in assay [10] it was 10.4%; in assay [11] it was 5.22%; in [12], -0.87%. For the same compound, the inhibition in assay [13] was -2.19%.

Regarding `CC(C)NC(=O)c1ccc(C#Cc2ccncc2)cn1`, the inhibition is -5.19% in assay [14]; -0.6% in assay [1]; 4.54% in assay [2]; 26.8% in assay [3]; 13.3% in [5]; 8.09% in assay [7]. Further, the inhibition in assay [15] is -5.94%; in assay [8], -3.71%; in assay [16], 34.4%; in [10], 0.15%; in assay [11], -8.85%; in assay [12], -3.71%. In addition, the inhibition in assay [17] is 24.2%; in assay [13] it was -7.18%.

For the compound `FC(F)(F)c1c(N2CCC(c3ccccc3)CC2)ccn2c(CC3CC3)nnc12`, the inhibition in assay [14] is -6.36%; in assay [1], -1.64%; in assay [2], 44.4%; in assay [3] it was 14.2%; in assay [4] it was -0.45%; in assay [5], -3.82%. Also, the inhibition was 33% in assay [6]; 22.9% in assay [7]; 26% in assay [8]; -9.2% in assay [16]; -8.34% in assay [9]; 19.7% in [10]. For the same compound, the inhibition in assay [11] is -5.09%; in assay [17], 54.2%; in [13], -1.74%; in assay [18], -8.94%.

As for `O=C(O)COc1cccc(CN(Cc2ccc(-n3cccn3)cc2)S(=O)(=O)c2cccnc2)c1`, the inhibition was -1.12% in assay [14]; 3.45% in assay [1]; 15.6% in assay [2]; 5.78% in assay [3]; 2.14% in assay [4]; 1.83% in [6]. Besides, the inhibition in assay [7] is 4.27%; in [8] it was 7.85%; in assay [16], 5.26%; in assay [9], 7.64%; in assay [10], -4.37%; in assay [11], -8.36%. The inhibition in [12] was 22.4%; in assay [13], -9.76%; in [18], 12.1%.

For `O=C1O[C@]2(CC[C@H](C(=O)Nc3ccn(-c4ccccc4F)n3)CC2)c2cnccc21`, the inhibition was -6% in assay [1]; 22.2% in assay [2]; 73.2% in assay [3]; -8.27% in [4]; 7.78% in assay [6]; -5.33% in assay [7]. In addition, the inhibition in [8] is 10.1%; in assay [16], 17.5%; in [9], 2.94%; in [10] it was 4.44%; in assay [12] it was -5.86%; in assay [18], -3.32%.

Regarding `O=C(O)CC1CCC2(CC1)CCN(c1cc(OC(F)(F)F)ccc1Cl)CC2`, the inhibition in [14] was -7.1%; in assay [1], -1.08%; in assay [2] it was 26.1%; in assay [3] it was 65.5%; in [4], -2.48%; in assay [6], 31.1%. Moreover, the inhibition in assay [7] was -1.25%; in assay [8], 18.6%; in [9] it was -5.1%; in [10], 34.3%; in assay [11] it was 0.58%; in [12] it was -0.66%. Further, the inhibition was 7.81% in [17], 9.28% in assay [13] and -0.21% in assay [18].

Regarding `CCOC(=O)c1cc(C#N)c(N2CCC(C(=O)NS(=O)(=O)Cc3ccccc3)CC2)nc1C`, the inhibition in assay [14] is 33.7%; in [2] it was 5.11%; in assay [3], 50.8%; in assay [5] it was 29.5%; in assay [6], -6.11%; in [7] it was 4.45%. For the same compound, the inhibition is 3.98% in assay [15]; 13.7% in [8]; 4.87% in assay [10]; -1.62% in [11]; -8.38% in [12]; 32.9% in assay [17]. Also, the inhibition in [13] is 6.28%.

As for `C[C@]1(C(=O)N(CCCC(=O)O)Cc2cccc(Cl)c2)CCN1C(=O)c1csc2ccccc12`, the inhibition in [14] was -4.07%; in assay [1], 5.11%; in assay [2], 5.34%; in [3], 29%; in [4] it was -8.24%; in assay [5] it was 3.17%. Also, the inhibition in assay [6] was 15.4%; in [7] it was -7.28%; in assay [15], -7.18%; in [8], -7.68%; in assay [16], -7.25%; in assay [12] it was -1.78%. The inhibition was 13% in assay [17] and 12.9% in [13].
